Data as given in PubChem BioAssay (NCI).
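Exposure lasted 48 hours, with cells grown in 96-well plates and compounds tested at five concentrations. GI50: concentration for 50% inhibition of growth. Definition used: TGI = concentration required for complete inhibition of growth.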

Assays:
Assay in all cases: NCI tumour cell line growth inhibition, 48 h; in the data active = GI50 below about 0.43 µM; inactive = the rest
786-0 renal = test system: 786-0 renal
A498 renal = test system: A498 renal
A549 NSCLC = test system: A549 NSCLC
ACHN renal = test system: ACHN renal
BT-549 breast = test system: BT-549 breast
CAKI-1 renal = test system: CAKI-1 renal
CCRF-CEM leukemia = test system: CCRF-CEM leukemia
COLO 205 colon = test system: COLO 205 colon
DU-145 prostate = test system: DU-145 prostate
EKVX NSCLC = test system: EKVX NSCLC
HCC-2998 colon = test system: HCC-2998 colon
HCT-116 colon = test system: HCT-116 colon
HCT-15 colon = test system: HCT-15 colon
HL-60(TB) leukemia = test system: HL-60(TB) leukemia
HOP-62 NSCLC = test system: HOP-62 NSCLC
HOP-92 NSCLC = test system: HOP-92 NSCLC
HS 578T breast = test system: HS 578T breast
HT29 colon = test system: HT29 colon
IGROV1 ovarian = test system: IGROV1 ovarian
K-562 leukemia = test system: K-562 leukemia
KM12 colon = test system: KM12 colon
LOX IMVI melanoma = test system: LOX IMVI melanoma
M14 melanoma = test system: M14 melanoma
MALME-3M melanoma = test system: MALME-3M melanoma
MCF7 breast = test system: MCF7 breast
MDA-MB-231 breast = test system: MDA-MB-231 breast
MDA-MB-435 = test system: MDA-MB-435
MDA-N = test system: MDA-N
MOLT-4 leukemia = test system: MOLT-4 leukemia
NCI-H226 lung = test system: NCI-H226 lung
NCI-H23 lung = test system: NCI-H23 lung
NCI-H460 lung = test system: NCI-H460 lung
NCI-H522 lung = test system: NCI-H522 lung
NCI/ADR-RES ovarian = test system: NCI/ADR-RES ovarian
OVCAR-3 ovarian = test system: OVCAR-3 ovarian
OVCAR-4 ovarian = test system: OVCAR-4 ovarian
OVCAR-5 ovarian = test system: OVCAR-5 ovarian
OVCAR-8 ovarian = test system: OVCAR-8 ovarian
PC-3 prostate = test system: PC-3 prostate
RPMI-8226 leukemia = test system: RPMI-8226 leukemia
RXF 393 renal = test system: RXF 393 renal
SF-268 CNS = test system: SF-268 CNS
SF-295 CNS = test system: SF-295 CNS
SF-539 CNS = test system: SF-539 CNS
SK-MEL-2 melanoma = test system: SK-MEL-2 melanoma
SK-MEL-28 melanoma = test system: SK-MEL-28 melanoma
SK-MEL-5 melanoma = test system: SK-MEL-5 melanoma
SK-OV-3 ovarian = test system: SK-OV-3 ovarian
SN12C renal = test system: SN12C renal
SNB-19 CNS = test system: SNB-19 CNS
SNB-75 CNS = test system: SNB-75 CNS
SR leukemia = test system: SR leukemia
SW-620 colon = test system: SW-620 colon
T-47D breast = test system: T-47D breast
TK-10 renal = test system: TK-10 renal
U251 CNS = test system: U251 CNS
UACC-257 melanoma = test system: UACC-257 melanoma
UACC-62 melanoma = test system: UACC-62 melanoma
UO-31 renal = test system: UO-31 renal

O=NNc1ccc(S(=O)c2ccccc2)cn1 (centres undefined)
> 100 µM: TGI (786-0 renal) | TGI (A498 renal) | TGI (A549 NSCLC) | TGI (ACHN renal) | TGI (BT-549 breast) | TGI (CAKI-1 renal) | TGI (CCRF-CEM leukemia) | TGI (COLO 205 colon) | TGI (DU-145 prostate) | TGI (EKVX NSCLC) | TGI (HCC-2998 colon) | TGI (HCT-116 colon) | TGI (HCT-15 colon) | TGI (HL-60(TB) leukemia) | TGI (HOP-62 NSCLC) | TGI (HOP-92 NSCLC) | TGI (HS 578T breast) | TGI (HT29 colon) | TGI (IGROV1 ovarian) | TGI (K-562 leukemia) | TGI (KM12 colon) | TGI (LOX IMVI melanoma) | TGI (M14 melanoma) | TGI (MALME-3M melanoma) | TGI (MCF7 breast) | TGI (MDA-MB-231 breast) | TGI (MDA-MB-435) | TGI (MDA-N) | TGI (MOLT-4 leukemia) | TGI (NCI-H226 lung) | TGI (NCI-H23 lung) | TGI (NCI-H460 lung) | TGI (NCI-H522 lung) | TGI (NCI/ADR-RES ovarian) | TGI (OVCAR-3 ovarian) | TGI (OVCAR-4 ovarian) | TGI (OVCAR-5 ovarian) | TGI (OVCAR-8 ovarian) | TGI (PC-3 prostate) | TGI (RPMI-8226 leukemia) | TGI (SF-268 CNS) | TGI (SF-295 CNS) | TGI (SF-539 CNS) | TGI (SK-MEL-2 melanoma) | TGI (SK-MEL-28 melanoma) | TGI (SK-MEL-5 melanoma) | TGI (SK-OV-3 ovarian) | TGI (SN12C renal) | TGI (SNB-19 CNS) | TGI (SNB-75 CNS) | TGI (SR leukemia) | TGI (SW-620 colon) | TGI (T-47D breast) | TGI (TK-10 renal) | TGI (U251 CNS) | TGI (UACC-257 melanoma) | TGI (UACC-62 melanoma) | TGI (UO-31 renal)
> 93.7 µM: TGI (RXF 393 renal)
inactive: GI50 (HCC-2998 colon) > 100 µM | GI50 (HOP-92 NSCLC) 12.2 µM | GI50 (LOX IMVI melanoma) > 100 µM | GI50 (MDA-MB-435) > 100 µM | GI50 (RPMI-8226 leukemia) > 100 µM | GI50 (SK-MEL-2 melanoma) > 100 µM

CN(CCN(C)CCN(C)C(=O)Cc1ccc(Cl)c(Cl)c1)CCN1CCCC1
57.2 µM: TGI (MCF7 breast)
51.7 µM: TGI (T-47D breast)
12.9 µM: TGI (K-562 leukemia)
49.6 µM: TGI (786-0 renal)
34.1 µM: TGI (SR leukemia)
6.07 µM: TGI (SK-MEL-28 melanoma)
39 µM: TGI (RXF 393 renal)
29.1 µM: TGI (MOLT-4 leukemia)
46.2 µM: TGI (SF-539 CNS)
22.8 µM: TGI (RPMI-8226 leukemia)
> 100 µM: TGI (A549 NSCLC) | TGI (ACHN renal) | TGI (CAKI-1 renal) | TGI (DU-145 prostate) | TGI (EKVX NSCLC) | TGI (HCT-116 colon) | TGI (HCT-15 colon) | TGI (HS 578T breast) | TGI (IGROV1 ovarian) | TGI (KM12 colon) | TGI (M14 melanoma) | TGI (NCI-H23 lung) | TGI (NCI/ADR-RES ovarian) | TGI (OVCAR-3 ovarian) | TGI (OVCAR-4 ovarian) | TGI (OVCAR-5 ovarian) | TGI (OVCAR-8 ovarian) | TGI (PC-3 prostate) | TGI (SF-268 CNS) | TGI (SK-OV-3 ovarian) | TGI (SN12C renal) | TGI (SNB-19 CNS) | TGI (SW-620 colon)
17.5 µM: TGI (UACC-257 melanoma)
27.3 µM: TGI (HT29 colon)
33.8 µM: TGI (COLO 205 colon)
58.1 µM: TGI (TK-10 renal)
21.6 µM: TGI (MDA-MB-435)
24.1 µM: TGI (HOP-92 NSCLC)
77.1 µM: TGI (BT-549 breast)
36.3 µM: TGI (LOX IMVI melanoma)
30.9 µM: TGI (CCRF-CEM leukemia)
73.3 µM: TGI (SNB-75 CNS)
31.8 µM: TGI (SK-MEL-2 melanoma)
3.93 µM: TGI (UO-31 renal)
36.6 µM: TGI (MALME-3M melanoma)
61.3 µM: TGI (HL-60(TB) leukemia) | TGI (NCI-H226 lung)
86.1 µM: TGI (HOP-62 NSCLC)
82.1 µM: TGI (NCI-H460 lung)
16.6 µM: TGI (UACC-62 melanoma)
35.3 µM: TGI (SK-MEL-5 melanoma)
53.9 µM: TGI (MDA-MB-231 breast)
41.4 µM: TGI (NCI-H522 lung)
41.5 µM: TGI (SF-295 CNS)
25.1 µM: TGI (MDA-N)
26 µM: TGI (HCC-2998 colon)
41.3 µM: TGI (U251 CNS)
32 µM: TGI (A498 renal)
